Assay results from ChEMBL document CHEMBL1201862, “PubChem BioAssay data set” (2004).
The source made the active and inactive calls.

Experiments:
[1] = target: T1, Protein skinhead-1 (Caenorhabditis elegans, UniProt P34707); format: functional
T1 sequence (P34707 whole entry): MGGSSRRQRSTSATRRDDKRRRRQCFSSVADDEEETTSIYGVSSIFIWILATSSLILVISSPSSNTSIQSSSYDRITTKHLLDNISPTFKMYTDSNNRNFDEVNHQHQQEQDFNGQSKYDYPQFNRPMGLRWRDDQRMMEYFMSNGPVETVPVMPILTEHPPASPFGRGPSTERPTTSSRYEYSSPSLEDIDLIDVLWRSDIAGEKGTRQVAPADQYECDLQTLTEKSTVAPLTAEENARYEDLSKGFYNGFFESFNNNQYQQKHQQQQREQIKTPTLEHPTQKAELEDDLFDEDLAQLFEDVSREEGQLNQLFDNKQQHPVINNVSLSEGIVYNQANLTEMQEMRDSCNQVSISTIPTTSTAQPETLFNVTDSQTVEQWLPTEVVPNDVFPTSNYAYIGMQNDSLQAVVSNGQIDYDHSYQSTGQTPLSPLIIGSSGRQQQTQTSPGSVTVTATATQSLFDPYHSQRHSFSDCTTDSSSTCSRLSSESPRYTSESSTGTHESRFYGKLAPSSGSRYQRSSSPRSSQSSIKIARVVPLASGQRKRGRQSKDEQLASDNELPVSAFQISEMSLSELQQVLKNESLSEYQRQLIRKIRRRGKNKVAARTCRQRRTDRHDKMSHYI

[2] = viability of uninfected HEp-2 cells – cell-based, HTS, cytotoxicity control for RSV inhibitor project, dose response (AID 2410); format: functional; conditions: human respiratory syncytial virus
[3] = target: DNA dC->dU-editing enzyme APOBEC-3G (Homo sapiens, UniProt Q9HC16); format: functional;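 further: Dose-response counterscreen measuring inhibition of APOBEC3G DNA deaminase activity, run while confirming APOBEC3A inhibitors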
Sequence of DNA dC->dU-editing enzyme APOBEC-3G (Q9HC16 whole entry): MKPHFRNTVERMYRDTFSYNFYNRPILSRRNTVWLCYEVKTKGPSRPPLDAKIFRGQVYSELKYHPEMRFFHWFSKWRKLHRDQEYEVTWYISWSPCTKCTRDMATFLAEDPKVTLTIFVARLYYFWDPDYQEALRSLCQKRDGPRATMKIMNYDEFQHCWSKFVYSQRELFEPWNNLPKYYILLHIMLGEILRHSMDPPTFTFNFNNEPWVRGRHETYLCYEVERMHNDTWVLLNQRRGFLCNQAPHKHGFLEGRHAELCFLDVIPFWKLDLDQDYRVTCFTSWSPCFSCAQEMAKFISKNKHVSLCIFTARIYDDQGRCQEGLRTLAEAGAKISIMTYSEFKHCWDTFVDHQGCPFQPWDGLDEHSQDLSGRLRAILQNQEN

[4] = target: DNA dC->dU-editing enzyme APOBEC-3A (Homo sapiens, UniProt P31941); experiment: Dose Response confirmation of small molecule APOBEC3A DNA Deaminase Inhibitors via a fluorescence-based single-stranded DNA deaminase assay. [Related pubchem assays (depositor defined):AID493011, AID493024]; format: functional
Sequence of DNA dC->dU-editing enzyme APOBEC-3A (P31941 whole entry): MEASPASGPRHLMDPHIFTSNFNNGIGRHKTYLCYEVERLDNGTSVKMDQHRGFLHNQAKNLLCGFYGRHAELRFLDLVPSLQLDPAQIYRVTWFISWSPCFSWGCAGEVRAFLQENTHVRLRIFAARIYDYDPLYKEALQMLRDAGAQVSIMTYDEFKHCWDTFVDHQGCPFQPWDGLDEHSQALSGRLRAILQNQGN

[5] = test system: Streptococcus; experiment: GAS UMAA2166 growth inhibition – luminescence, BacTiterGlo, counter-screen for streptokinase expression inhibitor project, dose response (AID 1915); format: functional, organism-based;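 further: potency for reduction of bacterial viability or growth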
[6] = test system: Streptococcus sp. 'group A'; experiment: Streptococcus pyogenes SK(-)GAS viability under kanamycin – luminescence, BacTiterGlo, confirmation, counter-screen for streptokinase expression inhibitor project, dose response (AID 1900); format: functional, organism-based
[7] = test system: H9c2; experiment: cells; format: functional, cell-based; conditions: Rattus norvegicus, H9c2, Myocardium;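 further: confirmatory concentration-response retest of ultra-high-throughput screening hits for modulation of myocardial damage; cell death induced by hydrogen peroxide oxidative stress; compound pretreatment for 60 min then peroxide exposure for 2 h; potency is for protecting the cells against peroxide damage rather than for killing them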
[8] = test system: BJ; experiment: BJ-TERT fibroblast viability loss – cell-based, RAS-independent, luminescence, dose response (AID 1933); format: functional; conditions: Homo sapiens
[9] = DRD fibroblast viability loss – cell-based, non-viral oncogenic, luminescence, dose response (AID 1934); format: functional; conditions: Homo sapiens
[10] = test system: BJ; experiment: BJ-TERT-LT-ST fibroblast viability loss – cell-based, RAS-independent, luminescence, dose response (AID 1935); format: functional; conditions: Homo sapiens;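 further: BJ fibroblasts immortalized with TERT plus LT and ST oncogenes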
[11] = test system: BJ; experiment: cells; format: functional, cell-based; conditions: Homo sapiens
[12] = target: T2, Streptokinase A (Streptococcus pyogenes serotype M1, UniProt P10520); experiment: viability-normalized secreted streptokinase activity reduction – plasminogen activation absorbance, OD405, dose response (AID 1914); format: functional, Streptococcus pyogenes M1 GAS;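 further: secreted streptokinase activity via plasminogen activation per viability signal from cell pellet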
T2 sequence (P10520 whole entry): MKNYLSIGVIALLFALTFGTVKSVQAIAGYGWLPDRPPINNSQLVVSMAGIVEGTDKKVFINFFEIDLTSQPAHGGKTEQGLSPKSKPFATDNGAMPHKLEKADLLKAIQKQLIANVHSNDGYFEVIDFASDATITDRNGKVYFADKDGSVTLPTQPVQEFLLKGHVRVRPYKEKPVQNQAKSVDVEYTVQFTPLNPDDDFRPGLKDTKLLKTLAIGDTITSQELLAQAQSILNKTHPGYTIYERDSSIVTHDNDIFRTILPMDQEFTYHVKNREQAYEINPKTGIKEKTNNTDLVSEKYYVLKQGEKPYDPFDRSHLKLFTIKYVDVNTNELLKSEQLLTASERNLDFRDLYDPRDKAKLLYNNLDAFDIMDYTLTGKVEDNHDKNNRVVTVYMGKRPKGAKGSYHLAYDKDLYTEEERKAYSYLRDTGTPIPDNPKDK

[13] = target: T3, RNA-binding protein pos-1 (Caenorhabditis elegans, UniProt G5EF15); experiment: disruptors of C. elegans POS-1 RNA interaction – biochemical, fluorescence polarization, dose response (AID 1964);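 further: purified POS-1 fused to maltose binding protein made in E. coli; potency of compounds blocking POS-1 binding to fluorescent RNA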
T3 sequence (G5EF15 whole entry): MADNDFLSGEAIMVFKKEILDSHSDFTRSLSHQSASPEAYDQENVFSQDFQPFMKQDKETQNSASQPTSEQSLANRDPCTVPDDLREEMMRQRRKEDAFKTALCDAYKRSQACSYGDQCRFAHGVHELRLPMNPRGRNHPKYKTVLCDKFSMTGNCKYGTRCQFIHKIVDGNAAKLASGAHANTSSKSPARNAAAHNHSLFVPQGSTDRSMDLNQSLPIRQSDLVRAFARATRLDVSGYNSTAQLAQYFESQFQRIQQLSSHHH

[14] = target: T4, Zinc finger protein mex-5 (Caenorhabditis elegans, UniProt Q9XUB2); experiment: potency of MEX-5 RNA-binding blockers – biochemical, C. elegans, fluorescence polarization, dose response (AID 1960)
T4 sequence (Q9XUB2 whole entry): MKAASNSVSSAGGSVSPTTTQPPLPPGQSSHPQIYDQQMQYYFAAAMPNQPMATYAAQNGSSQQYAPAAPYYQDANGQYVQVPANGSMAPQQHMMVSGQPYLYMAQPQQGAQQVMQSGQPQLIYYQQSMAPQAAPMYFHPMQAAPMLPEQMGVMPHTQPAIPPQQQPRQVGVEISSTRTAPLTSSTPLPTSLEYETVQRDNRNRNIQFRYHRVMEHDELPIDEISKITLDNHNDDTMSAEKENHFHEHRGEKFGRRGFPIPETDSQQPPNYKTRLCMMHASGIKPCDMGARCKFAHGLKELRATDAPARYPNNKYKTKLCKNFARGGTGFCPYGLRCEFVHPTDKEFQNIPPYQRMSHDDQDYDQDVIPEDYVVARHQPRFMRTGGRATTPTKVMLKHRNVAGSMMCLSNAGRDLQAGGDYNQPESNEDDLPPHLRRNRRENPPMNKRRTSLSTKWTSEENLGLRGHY

[15] = target: T5, Corticotropin-releasing factor receptor 2/Corticotropin-releasing factor-binding protein (Homo sapiens, UniProt P24387+Q13324); experiment: activators of CRF receptor 2 with binding protein – uHTS hits, confirmation (AID 602473); format: functional; conditions: read-out: EC50_Mean
T5 sequence (Q13324 whole entry): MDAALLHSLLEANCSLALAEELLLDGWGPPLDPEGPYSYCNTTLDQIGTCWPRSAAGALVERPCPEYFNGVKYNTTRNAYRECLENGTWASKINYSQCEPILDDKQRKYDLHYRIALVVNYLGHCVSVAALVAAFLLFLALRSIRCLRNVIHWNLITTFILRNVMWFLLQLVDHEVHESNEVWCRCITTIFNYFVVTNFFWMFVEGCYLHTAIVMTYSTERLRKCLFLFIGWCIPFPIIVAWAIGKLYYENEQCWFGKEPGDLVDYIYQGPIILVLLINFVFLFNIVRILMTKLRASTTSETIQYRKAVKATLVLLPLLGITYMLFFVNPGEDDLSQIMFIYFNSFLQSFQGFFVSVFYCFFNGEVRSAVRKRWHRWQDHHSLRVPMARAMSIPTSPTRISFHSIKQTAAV
T5 sequence (P24387 whole entry): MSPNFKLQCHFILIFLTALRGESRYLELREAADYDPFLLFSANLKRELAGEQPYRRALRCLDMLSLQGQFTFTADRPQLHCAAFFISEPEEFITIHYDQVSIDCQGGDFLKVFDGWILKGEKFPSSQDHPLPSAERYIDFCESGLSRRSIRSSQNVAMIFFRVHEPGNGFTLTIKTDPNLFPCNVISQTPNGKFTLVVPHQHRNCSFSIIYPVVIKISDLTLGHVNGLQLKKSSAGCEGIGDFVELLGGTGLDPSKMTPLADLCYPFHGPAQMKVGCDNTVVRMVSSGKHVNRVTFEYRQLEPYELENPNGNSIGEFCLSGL

[16] = target: T6, Probable nicotinate-nucleotide adenylyltransferase (Staphylococcus aureus (strain N315), UniProt P65502); format: functional, Staphylococcus aureus subsp. aureus N315; conditions: read-out: IC50_Mean;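 on IC50 Mean: confirmatory dose-response retesting of NadD inhibitor hits first found in an ultra-high-throughput screen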
T6 sequence (P65502 whole entry): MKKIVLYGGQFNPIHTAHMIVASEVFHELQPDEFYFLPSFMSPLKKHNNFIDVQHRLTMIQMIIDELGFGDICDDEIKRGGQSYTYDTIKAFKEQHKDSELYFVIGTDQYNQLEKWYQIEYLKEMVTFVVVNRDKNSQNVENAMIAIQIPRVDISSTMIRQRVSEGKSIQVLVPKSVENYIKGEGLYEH

[17] = target: T6, Probable nicotinate-nucleotide adenylyltransferase; format: functional, Staphylococcus aureus subsp. aureus N315
[18] = target: T5, Corticotropin-releasing factor receptor 2/Corticotropin-releasing factor-binding protein; experiment: Dose Response confirmation of uHTS hits for small molecule antagonists of the CRF-binding protein and CRF-R2 receptor complex.; format: functional; conditions: read-out: IC50_Mean
[19] = HIV-1 AD8 envelope cell-cell fusion blockers – cherry-pick, dose response (AID 652062); format: functional, cell-based;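 further: luciferase signal from cell-cell fusion driven by HIV-1 clade B AD8 Env; potency is for inhibitors of fusion seen as a drop in luminescence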
[20] = blockers of HIV-1 envelope-mediated cell-cell fusion – cherry-pick, dose response (AID 652057); format: functional, cell-based

Cc1c(OC(=O)CNC(=O)OC(C)(C)C)ccc2c3c(c(=O)oc12)CCC3
IC50 [1]: > 100 µM (inactive)
CC50 [2]: 36.9 µM (active)

CCc1n(CC(O)COCc2ccccc2)c2ccccc2[n+]1C (stereo not drawn)
IC50 [3]: 3.14 µM (active)
IC50 [4]: 2.36 µM (active)

CC(C)c1ccc(N(CC(=O)Nc2ccc(S(=O)(=O)N3CCOCC3)cc2)S(C)(=O)=O)cc1
IC50 [1]: > 100 µM (inactive)

CCOC(=O)c1ccc(NC(=O)c2[nH]cnc2C(=O)NCCCCCNC(=O)OC(C)(C)C)cc1
EC50 [5]: 5.74 µM (active)
EC50 [6]: 3.49 µM (active)
IC50 [7]: > 79 µM (inactive)

Cc1cc2ccccn2c1C(=O)c1ccc(Cl)c([N+](=O)[O-])c1
EC50 [8]: > 150 µM (not active)
EC50 [9]: > 150 µM (not active)
EC50 [10]: > 150 µM (inconclusive)
EC50 [11]: > 150 µM (not active)

COCCNC1=N[C@@H](c2ccc(Br)cc2)C(C(=O)OC)=C(C)N1Cc1ccccc1
IC50 [3]: 15.1 µM (active)
IC50 [4]: 12 µM (active)

Cc1cccc(C(=O)NC(C(=O)Nc2nc(-c3ccccn3)cs2)C(C)C)c1 (stereo not drawn)
EC50 [12]: > 150 µM (not active)
EC50 [5]: 17.1 µM (active)
EC50 [6]: 6.29 µM (active)
IC50 [7]: 8.6 µM (active)

Cc1cc(C=C2C(=O)NC(=O)NC2=O)c(C)n1-c1cccnc1
EC50 [13]: 64.3 µM (active)
EC50 [14]: 36.7 µM (inconclusive)

NS(=O)(=O)c1cc(C(=O)OCC(=O)Nc2ccc3[nH]c(O)nc3c2)ccc1Cl
IC50 [3]: 8.99 µM (active)
IC50 [4]: 10.4 µM (active)

Clc1ccc(OCc2nc(-c3ccncc3)no2)c(Br)c1
IC50 [1]: 31.6 µM (active)

Cc1cccc(C(=O)N[C@H](C(=O)OCc2cc(=O)n3c(n2)sc2ccccc23)C(C)C)c1
EC50 [12]: > 150 µM (not active)
IC50 [3]: 24.5 µM (active)
EC50 [5]: 40.5 µM (active)
IC50 [4]: 14.7 µM (active)
EC50 [6]: 26.2 µM (active)

O=C(CCc1nc(O)c2ccccc2n1)OCC(=O)N1CCc2ccccc21
IC50 [7]: > 79 µM (inactive)

CCOC(=O)c1ccc2c(c1)C1C=CCC1C(C(=O)OCC)N2 (stereo not drawn)
EC50 [13]: > 300 µM (not active)
EC50 [14]: > 300 µM (not active)

Cc1ccccc1COc1ccc(C(=O)C2=C(O)C(=O)N(CCCn3ccnc3)C2c2ccco2)cc1 (stereo not drawn)
EC50 [15]: > 53 µM (inactive)
IC50 [16]: 80 µM (inactive)
IC50 [17]: 10.5 µM (active)
IC50 [18]: > 47.1 µM (inactive)

CCCc1n(CC(O)COCc2ccccc2)c2ccccc2[n+]1C (stereo not drawn)
IC50 [3]: 4.55 µM (active)
IC50 [4]: 3.16 µM (active)

CSc1nc(Cl)c(Br)c(N2CC2)n1
IC50 [7]: > 79 µM (inactive)

CN(C(=O)CSCC(=O)Nc1ccc(Cl)cc1)C1CCCCC1
IC50 [1]: > 100 µM (inactive)

O=C1N[C@H](Cc2ccccc2)COC(=O)[C@@H](Cc2ccc(F)cc2)C/C=C\C[C@H]1CC(=O)N(CCO)Cc1ccccc1
IC50 [7]: > 79 µM (inactive)

COc1ccc(/C=C2\SC(=O)N(CC(=O)Nc3ccccc3O)C2=O)cc1OC
IC50 [1]: > 100 µM (inactive)

C[C@H](CO)N1C[C@H](C)[C@H](CN(C)Cc2cccc(F)c2)OCc2ccccc2-c2ccccc2C1=O
AC50 [19]: < 0.26 µM (active)
AC50 [20]: < 0.26 µM (active)

C#CCn1/c(=N/C(=O)c2cc(-c3cccs3)nc3ccccc23)sc2cc(S(N)(=O)=O)ccc21
CC50 [2]: > 50 µM (active)
IC50 [16]: 24.6 µM (active)
IC50 [17]: 12.8 µM (active)

CCOCCCn1/c(=N/C(=O)c2ccc(OC)c(OC)c2)c(C#N)cc2c(=O)n3cccc(C)c3nc21
EC50 [13]: 26.8 µM (active)
EC50 [14]: 35.4 µM (active)
